From patent US20250262212A1, “COMPOSITION FOR SUPPRESSING PROLIFERATION OF CANCER STEM CELLS” (Chemiteras, Inc., priority 2022, published 2025)

Test system: cancer stem cells (12037NS)
Assay: Proliferation suppressive effect on cancer stem cells (survival rate, WST-8 / Cell Counting Kit-8)
Assay type: cell-based
Conditions: for Survival Rate(%) of cancer stem cells: DMSO control = 100; for proliferation suppressive effect on cancer stem cells (in words): 10 μM, 3 days, verbal assessment
Experimental: The proliferation suppressive effect of the triazolohalopyrimidine compounds on cancer stem cells was evaluated as follows.
The proliferation suppressive effect of triazolohalopyrimidine compounds on cancer stem cells was evaluated using commercially available anticancer agents and known compounds known to have antitumor effect.
12037NS was used as cancer stem cells. 12037NS are the cells obtained by isolation and purification according to the method referred in Nature 432, No. 18, 396-401 (2004). 12037NS cells are susceptible to cytotoxicity by DMSO (dimethylsulfoxide) used for dilution of test compounds. Accordingly, DMSO was used as control.
Used cancer stem cells were 12037NS which are cultivated cancer stem cells. 12037NS are the cells obtained by isolation and purification according to the method referred in Nature 432, No. 18, 396-401 (2004).
Cancer stem cells (12037NS) were seededat 3.0×10^3 cells/well in a 96-well plate using DMEM (Dulbeco's Modified Eagle Medium).
Test compounds shown in Table 3 were diluted with DMSO and then further diluted with PBS (phosphate buffered saline) to prepare test solutions. The test solution was added to each well to become a final concentration of 10 μM. For controls, DMSO was added to the wells to become a final concentration of 0.1% (v/v).
After adding the test solution, the plate was incubated at 37° C. in a 5% CO2 environment for 3 days.
After incubation, water-soluble tetrazonium salt WST-8 (“Cell Counting Kit-8” coloring reagent; manufactured by Dojindo Laboratories) was added at 10 μL/well to each well and the plate was placed in a 37° C., 5% CO2 environment, and incubated for 2 hours.
The absorbance at 450 nm wavelength was measured for the culture solution in each well of the plate after incubation. WST-8 is reduced by intracellular dehydrogenase to produce water-soluble formazan. The number of living cells can be measured by measuring the absorbance of this formazan at 450 nm.
The survival rate of cancer stem cells was determined by comparing the measured number of living cells with the number of seeded cells.
In the same manner as in [Test Example 1], the survival rate of cancer stem cells was determined for the test compounds shown in Table 4. Triazolohalopyrimidine compound (I)g means 2-(4-hydroxyphenyl)-5-chloro-8-methyl[1.2.4]triazolo[1,5-c]pyrimidine.

[1] = Test Example 1, test compound 10 μM, 3 days incubation
[2] = Test Example 2, same manner as Test Example 1 (10 μM, 3 days)

SMILES	Survival Rate(%) of cancer stem cells [1]	proliferation suppressive effect on cancer stem cells (in words)	Survival Rate(%) of cancer stem cells [2]
O=c1[nH]cc(F)c(=O)[nH]1 [5-Fluorouracil]	80%	–	–
Cc1cnc(Cl)n2nc(-c3ccc(Br)cc3)nc12 [Compound (I)d, 2-(4-bromophenyl)-5-chloro-8-methyl[1.2.4]triazolo[1,5-c]pyrimidine]	–	significantly superior to those of commercially available anticancer agents	–
Cc1cnc(Cl)n2nc(-c3ccc(Cl)c(Cl)c3)nc12 [Compound (I)f, 2-(3,4-dichlorophenyl)-5-chloro-8-methyl[1.2.4]triazolo[1,5-c]pyrimidine]	–	significantly superior to those of commercially available anticancer agents	–
Cc1cnc(Cl)n2nc(-c3ccc(O)cc3)nc12 [Compound (I)g, 2-(4-hydroxyphenyl)-5-chloro-8-methyl[1.2.4]triazolo[1,5-c]pyrimidine]	–	–	45%
Cn1nnc2c(C(N)=O)ncn2c1=O [Temozolomide]	65%	–	75%
